The results in this text go back to patent publication US20240132489A1, “AROMATIC HETEROCYCLIC COMPOUND, PHARMACEUTICAL COMPOSITION, AND USE THEREOF” (GT APEIRON THERAPEUTICS LIMITED, priority 2020, published 2024).

The structures appear in SMILES notation. Where a name gives a salt, the structure may show the parent alone.

Usually IC50 stands for the point on the concentration scale where inhibition reaches its midpoint.

For assay [1], the target named is CDK7/cyclin H/MAT1 complex (Homo sapiens (Human), UniProt P50613). The experiment in a line: In vitro enzymatic inhibitory activity test, CDK7. It is filed as biochemical. Particulars: Caliper mobility shift, 180 min at 27° C. As for the experimental part: (§1) CDK7/CyclinH was diluted in a test buffer solution (20 mM MES PH6.75, 0.01% Tween20, 50 ug/mL BSA, 6 mM MgCl2) to obtain a corresponding enzyme solution with a 2.4× concentration. CDK2/CyclinE1 was diluted in a test buffer solution (20 mM MES PH6.75, 0.01% Tween20, 50 ug/mL BSA, 6 mM MgCl2) to obtain a corresponding enzyme solution with a 2.4× concentration. CDK9/CyclinT1 was diluted in a test buffer solution (20 mM MES PH6.75, 0.01% Tween20, 50 ug/mL BSA, 10 mM MgCl2) to obtain a corresponding enzyme solution with a 2.4× concentration. CDK12/CyclinK was diluted in a test buffer solution (80 mM MES PH6.5, 0.01% Tween20, 50 ug/mL BSA, 10 mM MgCl2) to obtain a corresponding enzyme solution with a 2.4× concentration. The compounds were dissolved in dimethyl sulfoxide (DMSO) at a concentration of 10 mM. […] 2 ul of a test compound solution was mixed with 5 ul of enzyme solution. After incubating for 10 min, 5 ul of the mixed solution of the polypeptide substrate and ATP was added. After incubating at 27° C. for 180 min, 4 uL of EDTA with a 120 mM concentration was added to each sample to stop the reaction. […] A CDK9/cyclin TI complex (8 nM) and a “5-FAM-CDK9tide” peptide substrate (2 μM, synthetic fluorophore labeled peptide having the following sequence: 5-FAM-GSRTPMY-NH2, where 5-FAM was as defined above, and NH2 represented C-terminal amide) were used for testing the CDK9 inhibition. […] A CDK2/cyclin E1 complex (0.5 nM) and the “5-FAM-CDK7tide” (2 μM) as defined above were used for testing the CDK2 inhibition.
Chain of CDK7/cyclin H/MAT1 complex (P50613 whole entry, species assumed): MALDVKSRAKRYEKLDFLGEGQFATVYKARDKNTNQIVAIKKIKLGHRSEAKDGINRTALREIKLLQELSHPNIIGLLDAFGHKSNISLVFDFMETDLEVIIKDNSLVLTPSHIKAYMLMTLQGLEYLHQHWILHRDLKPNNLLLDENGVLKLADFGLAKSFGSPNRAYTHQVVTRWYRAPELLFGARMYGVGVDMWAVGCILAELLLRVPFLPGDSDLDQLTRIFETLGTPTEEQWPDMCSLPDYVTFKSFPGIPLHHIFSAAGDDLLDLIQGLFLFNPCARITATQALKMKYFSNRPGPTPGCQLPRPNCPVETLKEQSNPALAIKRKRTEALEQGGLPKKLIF
Chain of CDK7/cyclin H/MAT1 complex (P51946 whole entry partner, species assumed): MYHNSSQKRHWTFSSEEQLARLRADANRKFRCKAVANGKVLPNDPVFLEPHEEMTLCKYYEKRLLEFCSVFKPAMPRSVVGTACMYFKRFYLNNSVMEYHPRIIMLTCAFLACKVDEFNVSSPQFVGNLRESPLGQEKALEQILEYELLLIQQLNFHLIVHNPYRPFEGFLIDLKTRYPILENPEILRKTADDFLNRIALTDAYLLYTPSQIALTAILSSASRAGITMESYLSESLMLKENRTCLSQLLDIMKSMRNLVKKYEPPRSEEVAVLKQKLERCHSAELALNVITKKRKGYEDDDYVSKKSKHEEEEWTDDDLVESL
Chain of CDK7/cyclin H/MAT1 complex (P51948 whole entry partner, species assumed): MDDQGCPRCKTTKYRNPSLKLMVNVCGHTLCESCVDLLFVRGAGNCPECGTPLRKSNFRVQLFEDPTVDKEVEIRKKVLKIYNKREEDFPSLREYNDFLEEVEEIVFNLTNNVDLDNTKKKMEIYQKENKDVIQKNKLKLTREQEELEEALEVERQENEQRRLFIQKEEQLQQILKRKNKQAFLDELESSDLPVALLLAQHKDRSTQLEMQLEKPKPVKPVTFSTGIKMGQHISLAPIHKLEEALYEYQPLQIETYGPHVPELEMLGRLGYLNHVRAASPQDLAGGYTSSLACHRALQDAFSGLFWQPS
(§2) Electrophoretic separation was performed on Caliper EZ Reader II by means of a fluorogenic substrate and a phosphorylated product to analyze the reaction mixture. Data were calculated by using GraphPad Prism version 6.0. IC50 values were adjusted by means of a nonlinear regression model using a dose-response curve.

Assay [2] has as its target CDK2/cyclin E1 complex (Homo sapiens (Human), UniProt P24941). Kind of assay: In vitro enzymatic inhibitory activity test, CDK2. It is filed as biochemical. The following applies: Caliper mobility shift, 180 min at 27° C. As for the experimental part:
CDK7/CyclinH was diluted in a test buffer solution (20 mM MES PH6.75, 0.01% Tween20, 50 ug/mL BSA, 6 mM MgCl2) to obtain a corresponding enzyme solution with a 2.4× concentration. CDK2/CyclinE1 was diluted in a test buffer solution (20 mM MES PH6.75, 0.01% Tween20, 50 ug/mL BSA, 6 mM MgCl2) to obtain a corresponding enzyme solution with a 2.4× concentration. CDK9/CyclinT1 was diluted in a test buffer solution (20 mM MES PH6.75, 0.01% Tween20, 50 ug/mL BSA, 10 mM MgCl2) to obtain a corresponding enzyme solution with a 2.4× concentration. CDK12/CyclinK was diluted in a test buffer solution (80 mM MES PH6.5, 0.01% Tween20, 50 ug/mL BSA, 10 mM MgCl2) to obtain a corresponding enzyme solution with a 2.4× concentration. […] 2 ul of a test compound solution was mixed with 5 ul of enzyme solution. After incubating for 10 min, 5 ul of the mixed solution of the polypeptide substrate and ATP was added. After incubating at 27° C. for 180 min, 4 uL of EDTA with a 120 mM concentration was added to each sample to stop the reaction. […] A CDK9/cyclin TI complex (8 nM) and a “5-FAM-CDK9tide” peptide substrate (2 μM, synthetic fluorophore labeled peptide having the following sequence: 5-FAM-GSRTPMY-NH2, where 5-FAM was as defined above, and NH2 represented C-terminal amide) were used for testing the CDK9 inhibition. […] A CDK2/cyclin E1 complex (0.5 nM) and the “5-FAM-CDK7tide” (2 μM) as defined above were used for testing the CDK2 inhibition.
as §2

For assay [3], the target named is CDK9/CyclinT1 (Homo sapiens (Human), UniProt P50750). Kind of assay: In vitro enzymatic inhibitory activity test, CDK9. It is filed as biochemical. Particulars: Caliper mobility shift, 180 min at 27° C. How it is done: as §1, §2
Chain of CDK9/CyclinT1 (P50750 whole entry, species assumed, the tested form may be a part): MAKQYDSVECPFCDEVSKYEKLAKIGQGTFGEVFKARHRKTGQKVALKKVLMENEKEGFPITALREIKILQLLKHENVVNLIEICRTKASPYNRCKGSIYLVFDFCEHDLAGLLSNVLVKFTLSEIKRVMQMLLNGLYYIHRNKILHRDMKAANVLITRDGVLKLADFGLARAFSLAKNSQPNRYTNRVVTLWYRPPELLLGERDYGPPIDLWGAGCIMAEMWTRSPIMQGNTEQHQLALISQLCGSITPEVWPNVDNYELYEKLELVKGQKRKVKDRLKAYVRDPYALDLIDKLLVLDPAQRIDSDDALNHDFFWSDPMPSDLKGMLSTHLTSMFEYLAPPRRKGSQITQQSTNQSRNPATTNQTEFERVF
Chain of CDK9/CyclinT1 (O60563 whole entry partner, species assumed, the tested form may be a part): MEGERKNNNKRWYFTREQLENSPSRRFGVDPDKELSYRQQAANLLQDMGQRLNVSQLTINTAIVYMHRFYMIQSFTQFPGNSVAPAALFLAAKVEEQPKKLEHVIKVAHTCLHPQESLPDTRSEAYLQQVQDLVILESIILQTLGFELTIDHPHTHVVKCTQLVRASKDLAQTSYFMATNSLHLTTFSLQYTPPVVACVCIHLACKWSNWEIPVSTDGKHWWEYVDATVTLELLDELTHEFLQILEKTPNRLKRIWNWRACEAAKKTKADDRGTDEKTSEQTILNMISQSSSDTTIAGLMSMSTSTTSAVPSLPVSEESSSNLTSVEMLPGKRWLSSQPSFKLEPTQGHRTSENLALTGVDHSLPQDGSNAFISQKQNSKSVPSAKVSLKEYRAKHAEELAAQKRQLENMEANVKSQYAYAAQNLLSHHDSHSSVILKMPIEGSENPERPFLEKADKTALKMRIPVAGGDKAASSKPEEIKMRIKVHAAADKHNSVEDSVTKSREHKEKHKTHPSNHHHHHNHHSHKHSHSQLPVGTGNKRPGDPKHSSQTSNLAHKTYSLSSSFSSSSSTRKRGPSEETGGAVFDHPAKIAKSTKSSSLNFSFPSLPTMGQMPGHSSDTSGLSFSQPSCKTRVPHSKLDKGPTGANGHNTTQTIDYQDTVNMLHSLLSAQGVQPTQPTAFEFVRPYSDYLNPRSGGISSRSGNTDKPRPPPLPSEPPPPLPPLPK
Assay [4] addresses CDK12(aa686-1082)/cyclin K complex (Homo sapiens (Human), UniProt Q9NYV4). Kind of assay: In vitro enzymatic inhibitory activity test, CDK12. It is filed as biochemical. Particulars: Caliper mobility shift, 180 min at 27° C. As for the experimental part:
as §1, §2

In assay [5] the test system is HCC70 cells. Kind of assay: Cell bioactivity detection (CyQuant), HCC70. It is filed as cell-based. The following applies: Homo sapiens, HCC70, 72 h, human breast cancer cells HCC70, 72 hours. How it is done:
(§3) Trypsinization was performed on A2780 and HCC70 cells. Cell suspensions were respectively transferred to 15 mL of centrifuge tubes and centrifuged at 800 rpm for 5 min. The supernatant was discarded. Resuspension in a fresh culture medium (RPMI 1640+10% FBS) was performed. After counting, the cells were inoculated at 2000/well in a 384-well plate (50 φL of 1640+10% FBS culture medium was added to the 2nd line and the 23rd line of the 384-well plate, and 50 μL of DPBS was added to surrounding wells). Incubation in an incubator (37° C., 5% CO2) was performed overnight.
(§4) The compound was added to the well plate the next day. The compound had the highest concentration of 10 μM and was diluted at the ratio of 1:4 to form 9 concentrations. The positive compound Paclitaxel had the highest concentration of 1 μM and was diluted at the ratio of 1:3 to form 9 concentrations. The DMSO content of each well was unified to 0.2%. A cell plate was centrifuged at 800 rpm for 30 seconds. Incubation for 72 hours in an incubator (37° C., 5% CO2) was performed. On the fourth day, a Cyquant reagent (3×) was prepared according to kit instructions. Each 384-well plate was prepared in the following proportions: DPBS: 11.568 mL, CyQuant® Direct nucleic acid stain: 72 μL, CyQuant® Direct background suppressor: 360 ILL. The plates were uniformly mixed and placed for standby application at room temperature. The cell plate was taken out and placed at room temperature to be balanced for 30 min. 25 μL of Cyquant reagent (3×) was dispensed to the cells in each well of the 384-well plates by using a Multi-drop dispenser. Incubation at 37° C. for 60 or more minutes was performed. The plates were read by Acumen (Acumen was configured to have a 488 nm excitation wavelength). IC50 results were analyzed by XLFIT5 of the IDBS company.

The test system of assay [6] is A2780 cells. Kind of assay: Cell bioactivity detection (CyQuant), A2780. It is filed as cell-based, human. Particulars: Homo sapiens, A2780, 72 h, ovarian carcinoma cells A2780, 72 hours. How it is done:
as §3, §4

Chain of CDK12(aa686-1082)/cyclin K complex (Q9NYV4 686-1082, species assumed): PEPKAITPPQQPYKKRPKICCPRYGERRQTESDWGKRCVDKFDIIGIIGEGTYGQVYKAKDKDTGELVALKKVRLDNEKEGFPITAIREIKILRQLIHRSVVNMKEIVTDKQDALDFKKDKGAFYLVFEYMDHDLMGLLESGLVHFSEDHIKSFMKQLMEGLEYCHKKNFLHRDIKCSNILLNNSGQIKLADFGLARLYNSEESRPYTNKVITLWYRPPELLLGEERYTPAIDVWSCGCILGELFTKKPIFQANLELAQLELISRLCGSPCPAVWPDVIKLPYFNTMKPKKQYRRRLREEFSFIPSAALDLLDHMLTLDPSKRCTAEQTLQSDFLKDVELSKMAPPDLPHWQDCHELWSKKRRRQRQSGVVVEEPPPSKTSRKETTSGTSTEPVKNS
Chain of CDK12(aa686-1082)/cyclin K complex (O75909 whole entry partner, species assumed, the tested form may be a part): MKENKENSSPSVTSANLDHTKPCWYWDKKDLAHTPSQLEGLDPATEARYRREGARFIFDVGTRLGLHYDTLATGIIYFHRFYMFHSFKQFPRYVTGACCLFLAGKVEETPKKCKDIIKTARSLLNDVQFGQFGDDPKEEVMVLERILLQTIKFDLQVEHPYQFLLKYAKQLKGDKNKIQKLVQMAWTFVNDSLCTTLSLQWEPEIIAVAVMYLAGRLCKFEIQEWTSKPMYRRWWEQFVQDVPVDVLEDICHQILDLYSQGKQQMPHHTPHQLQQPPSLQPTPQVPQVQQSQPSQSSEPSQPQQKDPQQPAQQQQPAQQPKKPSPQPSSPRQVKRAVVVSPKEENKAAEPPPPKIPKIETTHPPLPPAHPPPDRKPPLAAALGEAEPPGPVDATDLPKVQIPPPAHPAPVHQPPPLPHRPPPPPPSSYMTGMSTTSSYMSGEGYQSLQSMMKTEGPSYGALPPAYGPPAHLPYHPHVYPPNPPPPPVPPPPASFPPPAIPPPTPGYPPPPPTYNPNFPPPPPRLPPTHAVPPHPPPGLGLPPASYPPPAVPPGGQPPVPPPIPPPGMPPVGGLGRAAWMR

Regarding `FC(F)(F)c1cnc(N[C@H]2CCCNC2)nc1-c1c[nH]c2nc(C3=CCOCC3)ccc12` [Compound 27, (S)-4-(6-(3,6-dihydro-2H-pyran-4-yl)-1H-pyrrolo[2,3-b]pyridin-3-yl)-N-(piperidin-3-yl)-5-(trifluoromethyl)pyrimidine-2-amine], the IC50 in assay [1] was 0.00217 µM; in assay [2], 1.12 µM; in assay [3] it was 1.5 µM; in assay [4], 0.418 µM; in assay [5], 0.03 µM; in assay [6], 0.0051 µM.
Consider `C[C@H]1COCCN1c1ccc2c(-c3nc(N[C@H]4CCCNC4)ncc3C(F)(F)F)c[nH]c2n1` [Compound 18, 4-(6-((S)-3-methylmorpholinyl)-1H-pyrrolo[2,3-b]pyridin-3-yl)-N—((S)-piperidin-3-yl)-5-(trifluoromethyl)pyrimidine-2-amine], for which the IC50 in assay [1] turned out to be 0.00947 µM; in assay [2], 6.56 µM; in assay [3], 2.87 µM; in assay [4], 2.29 µM; in assay [5], 0.0067 µM; in assay [6], 0.0072 µM.
As to `FC(F)(F)c1cnc(N[C@H]2CCCNC2)nc1-c1c[nH]c2nc(N3CCC4(COC4)C3)ccc12` [Compound 8, (S)-4-(6-(2-oxa-6-azaspiro[3.4]octan-6-yl)-1H-pyrrolo[2,3-b]pyridin-3-yl)-N-(piperidin-3-yl)-5-(trifluoromethyl)pyrimidine-2-amine], the IC50 was 0.0403 µM in assay [1]; 17.5 µM in assay [2]; 15.9 µM in assay [3]; 9.32 µM in assay [4]; 0.016 µM in assay [5]; 0.0191 µM in assay [6].
For the molecule `C[C@@H]1OCC2(CCN(c3ccc4c(-c5nc(N[C@H]6CCCNC6)ncc5C(F)(F)F)c[nH]c4n3)CC2)[C@@H]1N` [Compound 12, (3S,4S)-3-methyl-8-(3-(2-(((S)-piperidin-3-yl)amino)-5-(trifluoromethyl)pyrimidin-4-yl)-1H-pyrrol[2,3-b]pyridin-6-yl)-2-oxa-8-azaspiro[4.5]decan-4-amine], the IC50 came out at 0.0174 µM in assay [1]; 3.79 µM in assay [2]; 2.79 µM in assay [3]; 1.17 µM in assay [4]; 0.069 µM in assay [5]; 0.0901 µM in assay [6].
With `C[C@H]1COCCN1c1ccc2c(-c3nc(N[C@H]4CCC(C)(C)NC4)ncc3C(F)(F)F)c[nH]c2n1` [Compound 26, N—((S)-6,6-dimethylpiperidin-3-yl)-4-(6-((S)-3-methylmorpholinyl)-1H-pyrrolo[2,3-b]pyridin-3-yl)-5-(trifluoromethyl)pyrimidine-2-amine], the IC50 in assay [1] is 0.0095 µM; in assay [2] it was over 10 µM; in assay [3] it was over 10 µM; in assay [4], over 10 µM; in assay [5], 0.052 µM; in assay [6] it was 0.03 µM.
On to `C[C@H]1COCCN1c1ccc2c(-c3nc(N[C@H]4CCC5(CC5)NC4)ncc3C(F)(F)F)c[nH]c2n1` [Compound 70, (S)—N-(4-(6-((S)-3-methylmorpholinyl)-1H-pyrrol[2,3-b]pyridin-3-yl)-5-(trifluoromethyl)pyrimidin-2-yl)-4-azaspiro[2.5]octan-6-amine formate], for which the IC50 in assay [1] is 0.0412 µM; in assay [2], 37.6 µM; in assay [3] it was over 50 µM; in assay [4], 49 µM; in assay [5], 0.484 µM; in assay [6] it was 0.146 µM.
For the molecule `FC(F)(F)c1cnc(N[C@H]2CCCNC2)nc1-c1c[nH]c2nc(N3C[C@H]4C[C@@H]3CO4)ccc12` [Compound 2, 4-(6-((1R,4R)-2-oxa-5-azabicyclo[2.2.1]heptan-5-yl)-1H-pyrrolo[2,3-b]pyridin-3-yl)-N—((S)-piperidin-3-yl)-5-(trifluoromethyl)pyrimidine-2-amine], the IC50 came out at 0.0104 µM in assay [1]; 4.38 µM in assay [2]; 1.03 µM in assay [3]; 1.84 µM in assay [4]; 0.015 µM in assay [5]; 0.016 µM in assay [6].
In the case of `FC(F)(F)c1cnc(N[C@H]2CCCNC2)nc1-c1c[nH]c2nc(N3CC4CC(C3)O4)ccc12` [Compound 34, 4-(6-(6-oxo-3-azabicyclo[3.1.1]heptan-3-yl)-1H-pyrrol[2,3-b]pyridin-3-yl)-N—((S)-piperidin-3-yl)-5-(trifluoromethyl)pyrimidine-2-amine], the IC50 in assay [1] came out at 0.0402 µM; in assay [2], 1.27 µM; in assay [3], 1.66 µM; in assay [4], 1.09 µM; in assay [5], 0.015 µM; in assay [6] it was 0.0033 µM.
`FC(F)(F)c1cnc(N[C@H]2CCCNC2)nc1-c1c[nH]c2nc(C3CCOC3)ccc12` (single isomer, unassigned) [Compound 107]: the concentration for half-maximal inhibition (IC50) in assay [1] is 0.0064 µM; in assay [2], 1.51 µM; in assay [3] it was 1.44 µM; in assay [4] it was 0.567 µM; in assay [5] it was 0.00677 µM; in assay [6], 0.00627 µM.
Regarding `FC(F)(F)c1cnc(N[C@H]2CCCNC2)nc1-c1c[nH]c2nc(N3CCCOCC3)ccc12` [Compound 22, (S)-4-(6-(1,4-oxazepan-4-yl)-1H-pyrrolo[2,3-b]pyridin-3-yl)-N-(piperidin-3-yl)-5-(trifluoromethyl)pyrimidine-2-amine], the IC50 in assay [1] was 0.00705 µM; in assay [2] it was 3.05 µM; in assay [3] it was 2.86 µM; in assay [4], 0.783 µM; in assay [5], 0.0107 µM; in assay [6], 0.0047 µM.
